Row | melting point | SMILES
1 | 164 °C | COC(=O)c1cc(NC(=O)OC(C)(C)C)c(N)cc1C#Cc1ccccc1
2 | 124 to 125 °C | COc1coc2ccc(OCCCCCCN3CCC(O)CC3)cc2c1=O
3 | 228 to 229 °C | O=C1Nc2cc(F)ccc2Oc2ccccc21
4 | 84 to 86 °C | COC1(c2ccc(Sc3ccc4c(c3)CCC(=O)N4C)s2)CCOCC1
5 | 197 to 198 °C | Cc1cccc(Sc2c(O)cc(-c3ccccc3)oc2=O)c1
6 | 245 to 248 °C | CCn1ccc(-c2sc(NC(=O)c3ccncc3)nc2-c2ccco2)cc1=O
7 | 135 °C | CS(=O)(=O)c1ccc(Oc2ccc([N+](=O)[O-])c(NCCC(N)=O)c2)c(Cl)c1
8 | 110 to 112 °C | CCCCOCCOc1ccc(-c2ccc3c(c2)C=C(C(=O)O)CCN3CC2CCC2)cc1
9 | 84 °C | CN(Cc1ccc(C2=NCCN2)cc1)C(=O)OCc1ccccc1
10 | 230 to 231 °C | CC(C)(O)c1cccc(-c2ccc3nc(-c4ccc(Cl)cc4)cn3c2)c1Cl
11 | 268 °C | Cc1ccc2c(=O)c(O)cn(C)c2c1
12 | 106 to 108 °C | COc1ccc2c(n1)C1(CO2)C(=O)N(Cc2ccc(C(F)(F)F)o2)c2cccc(Cl)c21 (centres undefined)
13 | 88 to 91 °C | Cc1nc(OCCCCn2cncn2)c([N+](=O)[O-])c(N2CCc3ccccc3CC2)n1
14 | 62 to 63 °C | COC(=O)c1cccc(N)c1N
15 | 66 to 68 °C | O=C1CCCc2ccn(-c3ccccc3)c21
16 | 116 to 118 °C | CCN(c1ccc(OC)cc1)c1cc(NC)nc(C)n1
17 | 60 to 61 °C | O=C1Cc2cc(Cl)ccc2Oc2ccccc21
18 | 191 to 194 °C | COC(=O)c1ccc2c(c1)N(C1CC1)C=NS2(=O)=O
19 | 195 °C | Cc1cc(Oc2ccccc2)c(S(C)(=O)=O)cc1C(=O)O

Row | melting point | SMILES
20 | 289 to 291 °C | O=c1[nH]c(=S)n2c3c1cnn3C(c1ccccc1)=CC2
21 | 133 to 134 °C | CC(C)NC(=O)OCC(=O)c1ccc(-c2ccccc2)cc1
22 | 155 to 156 °C | CC(O)c1ccc(CCOc2ccc(CC3SC(=O)NC3=O)cc2)nc1 (centres undefined)
23 | 142 °C | CCOC(=O)CC(Cc1ccc(OCCc2nc(-c3ccccc3)oc2C)cc1)C(N)=O (centres undefined)
24 | 245 to 250 °C | Cc1cccc(C(=O)C2=C(O)C(=O)N(c3ccc(C)nn3)C2c2ccc(C(C)C)cc2)c1 (centres undefined)
25 | 153 to 155 °C | COC(=O)C(=NOCF)c1ccccc1Oc1ncnc(Oc2ccccc2Cl)c1F
26 | 130 to 132 °C | Cc1c(NC(=O)CC(CSC(=O)COc2ccccc2)c2ccccc2)cccc1C(=O)O (centres undefined)
27 | 299 °C | O=C(O)c1cnc(-c2ccc(OCc3ccccc3)cc2)nc1
28 | 68 to 72 °C | COc1ccc(CN(CCN(C)CCCCNC(=O)NCCCOc2cccc(CN3CCCCC3)c2)c2ccccn2)cc1
29 | 242 °C | N#CC1=C(c2ccsc2)Nc2n[nH]cc2C1c1cccc2nonc12 (centres undefined)
30 | 247 to 250 °C | CCCn1cc2c(C3C(=O)Nc4ccc(Br)cc43)nc(NCC(C)N)nc2n1 (centres undefined)
31 | 240 to 242 °C | O=C1Nc2ccccc2Oc2sc3ccccc3c21
32 | 48 to 52 °C | O=C(Nc1nccs1)C(CC1CCCC1)c1ccc(-c2cccnc2)cc1 (centres undefined)
33 | 236 to 238 °C | Cc1nc(-c2cccc(C(=O)O)c2)nn1-c1cccc(F)c1
34 | 88 °C | CCCc1ccc(-c2ccc(-c3cccs3)c(F)c2)cc1
35 | 195 to 199 °C | COC(=O)N(C)c1cccc(-c2ccc3nncn3n2)c1
36 | 120 to 121 °C | CCOC(=O)c1cccc(-n2c(C)nc3cnccc32)c1
37 | 71 °C | COC(=O)c1ccc(C(O)c2cc3cc(Cl)ccc3n2S(=O)(=O)c2ccc(C(C)C)cc2)cc1 (centres undefined)
38 | 69 to 71 °C | N#CC(Cl)Cc1ccc(Cl)cc1C(=O)c1ccccc1 (centres undefined)

Row | melting point | SMILES
39 | 108 to 116 °C | Cc1nc2c(-c3cccc(N4CCN(CCO)CC4)c3)cnn2c(N)c1-c1cccc(Cl)c1
40 | 207 to 208 °C | CCCn1nc2c(-c3ccccc3)cccc2c1-c1ccc(O)cc1
41 | 194 to 196 °C | COc1ccc(-c2noc3c2CCCC(C(=O)O)C3)cc1 (centres undefined)
42 | 187 to 189 °C | CCOCc1nc2c(N)nc3cc(-c4ccsc4)ccc3c2n1CC(C)C
43 | 129 to 130 °C | O=C(CS(=O)c1ccc(Cl)cc1)c1ccccc1 (centres undefined)
44 | 170 to 171 °C | Fc1cccc(Cl)c1-c1nnc2ccc(C(F)(F)F)cn12
45 | 188 to 189 °C | Cn1ncc2c1-c1c(Oc3ccc(F)cc3)sc(C(N)=O)c1CC2
46 | 94 to 96 °C | C[C@H](NC(=O)c1nc(CCCc2ccccc2)c[nH]1)C(=O)NC(C=O)CC(=O)O (some centres undefined)
47 | 97 to 98 °C | N#CC1c2ccccc2Oc2ccccc21
48 | 164 to 167 °C | CCCS(=O)(=O)Nc1c(C(=O)c2ccccc2)[nH]c2cc(Cl)ccc12
49 | 83 °C | COc1ccccc1S(=O)(=O)OC(Cl)C(=O)c1ccccc1 (centres undefined)
50 | 205 to 207 °C | O=C(O)c1cc(OCc2ccccc2)c(C(=O)c2ccccc2)c([N+](=O)[O-])c1
51 | 137 to 138 °C | Nc1ccc(C(=O)c2ccccn2)cc1N
52 | 103 to 104 °C | COC(=O)C(O[Si](C)(C)C(C)(C)C)c1ccccc1O (centres undefined)
53 | 187 to 189 °C | C=C(C)Cn1c(=O)n(C)c(=O)c2cn(Cc3cccc4ccccc34)nc21
54 | 216 to 217 °C | Cc1sc(C(=O)OCc2ccc3c(c2)OCO3)cc1NC(=O)NCc1ccccc1
55 | 106 to 108 °C | CCc1nn2ccccc2c1NC(=O)COC
56 | 263 to 265 °C | O=c1[nH]nc(Cl)cc1Nc1ccc(-c2ccncc2)nn1

Further lines, the compound ahead of its results:

Row | SMILES | melting point
57 | N#CC(C#N)=C1N(CCN2CCCCC2)CCN1CCN1CCCCC1 | 104 to 106 °C
58 | Cc1nc2c(cc1Cl)C(=O)N(C)CC(CCCl)O2 (centres undefined) | 65 to 69 °C
59 | CC(C)c1nc(COC(N)=O)n(CCOC(N)=O)c1Sc1cc(Cl)cc(Cl)c1 | 159 to 161 °C
60 | CC(C)(C)OCc1cc(Oc2ccc(C(F)(F)F)cc2Cl)ccc1[N+](=O)[O-] | 75 to 78 °C
61 | CCCc1nc2cnc3ccccc3c2n1CCC1(O)CCOCC1 | 186 to 188 °C
62 | Cn1ncc(C(=O)NC2CC2)c1Cl | 105 to 107 °C
63 | CCC(=O)c1ccc(=O)[nH]c1C | 173 to 175 °C
64 | CCCCOc1ccc(S(=O)(=O)C2(C(=O)NO)CCN(CCCC)CC2)cc1 | 121 °C
65 | CCC1(C)CC(N(CCN(C(C)=O)C2CC(C)(CC)NC(C)(CC)C2C)C(C)=O)C(C)C(C)(CC)N1 (centres undefined) | 173 to 175 °C
66 | Cc1cc(Cl)cc2c1OC(C(F)(F)F)C(C(=O)O)=C2 (centres undefined) | 232 to 233 °C
67 | CN(C(=O)Cc1cccc2[nH]ccc12)C1c2ccccc2CC1N1CCCC1 (centres undefined) | 202 to 204 °C
68 | CCOC(=O)C1=C(C)Nc2nc(N3CCOCC3)nc(N3CCOCC3)c2C1c1ccccc1C(F)(F)F (centres undefined) | 214 °C
69 | CC(C)(C)[Si](C)(C)OCCn1nc(C=O)cc1C=O | 63 to 64 °C
70 | Cc1cc(Cl)nc(C#N)c1 | 133 °C
71 | CC(=O)[C@H]1CC[C@H](c2ccc(Cl)cc2)CC1 | 74.6 °C
72 | O=C(CCl)Oc1ccccc1O | 32 to 35 °C
73 | CN1CCC23c4c5ccc(OCCCN)c4OC2C(O)C=CC3C1C5 (centres undefined) | 132 to 134 °C
74 | CCC12CCC3C(=CCC4(C)C(O)CCC34)C1(C)CCC(O)C2 (centres undefined) | 165 °C
75 | Cc1ccc(C)c(C2CC(=O)c3c(C)ccnc3C2)c1 (centres undefined) | 95 to 96 °C
76 | CNS(=O)(=O)c1cc(C(C)(C)C)cc(CNC(C)=O)c1O | 173 to 174 °C
77 | CC(=NO)c1ccc(C(F)(F)C(F)(F)c2ccccc2)cc1 | 137 to 139 °C
78 | C=CCn1c(C)c(C)c2cnnc(OCc3ccc(Cl)cc3Cl)c21 | 98 to 99 °C
79 | CC1=C(C)C(=O)C(CCCCO)=C(C)C1=O | 36 to 38 °C
80 | N#Cc1ccnc(Cl)c1Cl | 65 to 69 °C

Row | SMILES | melting point
81 | CCCC1=C(C(=O)OCC)SCCS1=O (centres undefined) | 109 to 110 °C
82 | CC#Cc1cc(C)c(C2=C(O)C3(CCN(OC)CC3)N(C)C2=O)c(C)c1 | > 240 °C
83 | Cn1cc(C2=C(c3c4n(c5ccccc35)CCCC(CO)C4)C(=O)NC2=O)c2ccccc21 (centres undefined) | 268 to 270 °C
84 | Cc1nc(O)c2c(n1)CCN(c1nc(C)nc(O)c1[N+](=O)[O-])CC2 | > 200 °C
85 | CSC(=S)NCc1ccc([N+](=O)[O-])cc1 | 106 to 107 °C
86 | C#CC(=CC(=O)O)c1ccccc1 | 130 °C
87 | COc1ccc2c(C)c(CCOS(C)(=O)=O)c(=O)oc2c1 | 174 to 175 °C
88 | O=C(O)c1ccc(C23CC4CC(C2)CC(c2ccc(C(=O)O)cc2)(C4)C3)cc1 | 304 to 306 °C
89 | CCOC(=O)c1c2n(c3cc(N4CCN(C(C)=O)CC4)c(Cl)cc3c1=O)CS2 | 266 to 268 °C
90 | COC(=O)CCC(=O)Nc1ccc(C(=O)NNC(=O)OC(C)(C)C)cc1 | 111 to 113 °C
91 | Nc1cc(=O)n(Cc2ccc(C(F)(F)F)c(Cl)c2)[nH]1 | 83 °C
92 | O=S1(=O)N=CN(C2CC2)c2cc(F)cc(F)c21 | 167 to 168 °C
93 | O=C1NC(=O)C(Cc2ccc(C(=O)/C=C/c3ccccc3)cc2)S1 (centres undefined) | 147 to 149 °C
94 | O=C(O)CCNC(=O)[C@H](Cc1ccc(-c2ccccc2)cc1)NCP(=O)(Oc1ccccc1)Oc1ccccc1 | 102 °C
95 | Nc1nc(C(=Cc2c(Cl)ccc(Cl)c2Cl)C(=O)O)cs1 | > 210 °C
96 | CC(=O)OCC1OC(n2c(=O)sc3c(Cl)nc(Cl)nc32)C(OC(C)=O)C1OC(C)=O (centres undefined) | 125 to 126 °C
97 | CC(=O)Nc1cc2c(cc1[N+](=O)[O-])OC(C)(C)O2 | 173 to 174 °C
98 | CC(=O)CC(=O)Nc1cccc(C(F)(F)F)c1 | 109 to 110 °C
99 | CCOCc1nc2c(N)nc3ccccc3c2n1CC(C)(C)CS(N)(=O)=O | 229 to 231 °C
100 | CCOC(=O)c1cn(CC)c2nc(N3CCN(CC)CC3)ncc2c1=O | 161 °C
101 | CCNCC1CN(c2c(F)cc3c(=O)c(C(=O)O)cn(C4CC4)c3c2Cl)CC1C (centres undefined) | 254 to 257 °C
102 | CC(C)=C1CC(=O)N(c2cc(F)c(C#N)cc2F)C1=O | 135 °C
103 | CCOC(=O)c1nc(NC)sc1C(=O)C(C)Br (centres undefined) | 104 to 106 °C
104 | Cc1nc(N2C[C@@H](C)N(Cc3cc(F)cc(F)c3)C2=O)sc1C(N)=O | 212 to 213 °C

Reference: a melting point compilation (Tetko et al.; mined from patent text by program, amines drawn as free bases though some values may be those of a salt)
